This is an account of results in patent US20250115576A1, “THERAPEUTIC COMPOUNDS AND METHODS OF USE THEREOF” (Genentech, Inc., priority 2018, published 2025).

As a reminder, the IC50 is the concentration needed to halve the response being measured.

Structures can show the parent of a compound that is named as a salt.

The target in this experiment is hNav1.7 (Homo sapiens (Human), UniProt Q15858). The experiment is described as follows: Patch voltage clamp electrophysiology (EP), Syncropatch 384PE, CHO cells stably expressing Nav1.7. It is filed as cell-based. As to conditions: holding potential −50 mV, 7.5 min compound incubation, read-out: EP_SP hNav1.7 EVO IC50. The text has this: Example 64c. Electrophysiological Assay (EP) (In Vitro Assay)
hNav1.7, sequence (Q15858 other isoform, or with tags, fused parts or gaps): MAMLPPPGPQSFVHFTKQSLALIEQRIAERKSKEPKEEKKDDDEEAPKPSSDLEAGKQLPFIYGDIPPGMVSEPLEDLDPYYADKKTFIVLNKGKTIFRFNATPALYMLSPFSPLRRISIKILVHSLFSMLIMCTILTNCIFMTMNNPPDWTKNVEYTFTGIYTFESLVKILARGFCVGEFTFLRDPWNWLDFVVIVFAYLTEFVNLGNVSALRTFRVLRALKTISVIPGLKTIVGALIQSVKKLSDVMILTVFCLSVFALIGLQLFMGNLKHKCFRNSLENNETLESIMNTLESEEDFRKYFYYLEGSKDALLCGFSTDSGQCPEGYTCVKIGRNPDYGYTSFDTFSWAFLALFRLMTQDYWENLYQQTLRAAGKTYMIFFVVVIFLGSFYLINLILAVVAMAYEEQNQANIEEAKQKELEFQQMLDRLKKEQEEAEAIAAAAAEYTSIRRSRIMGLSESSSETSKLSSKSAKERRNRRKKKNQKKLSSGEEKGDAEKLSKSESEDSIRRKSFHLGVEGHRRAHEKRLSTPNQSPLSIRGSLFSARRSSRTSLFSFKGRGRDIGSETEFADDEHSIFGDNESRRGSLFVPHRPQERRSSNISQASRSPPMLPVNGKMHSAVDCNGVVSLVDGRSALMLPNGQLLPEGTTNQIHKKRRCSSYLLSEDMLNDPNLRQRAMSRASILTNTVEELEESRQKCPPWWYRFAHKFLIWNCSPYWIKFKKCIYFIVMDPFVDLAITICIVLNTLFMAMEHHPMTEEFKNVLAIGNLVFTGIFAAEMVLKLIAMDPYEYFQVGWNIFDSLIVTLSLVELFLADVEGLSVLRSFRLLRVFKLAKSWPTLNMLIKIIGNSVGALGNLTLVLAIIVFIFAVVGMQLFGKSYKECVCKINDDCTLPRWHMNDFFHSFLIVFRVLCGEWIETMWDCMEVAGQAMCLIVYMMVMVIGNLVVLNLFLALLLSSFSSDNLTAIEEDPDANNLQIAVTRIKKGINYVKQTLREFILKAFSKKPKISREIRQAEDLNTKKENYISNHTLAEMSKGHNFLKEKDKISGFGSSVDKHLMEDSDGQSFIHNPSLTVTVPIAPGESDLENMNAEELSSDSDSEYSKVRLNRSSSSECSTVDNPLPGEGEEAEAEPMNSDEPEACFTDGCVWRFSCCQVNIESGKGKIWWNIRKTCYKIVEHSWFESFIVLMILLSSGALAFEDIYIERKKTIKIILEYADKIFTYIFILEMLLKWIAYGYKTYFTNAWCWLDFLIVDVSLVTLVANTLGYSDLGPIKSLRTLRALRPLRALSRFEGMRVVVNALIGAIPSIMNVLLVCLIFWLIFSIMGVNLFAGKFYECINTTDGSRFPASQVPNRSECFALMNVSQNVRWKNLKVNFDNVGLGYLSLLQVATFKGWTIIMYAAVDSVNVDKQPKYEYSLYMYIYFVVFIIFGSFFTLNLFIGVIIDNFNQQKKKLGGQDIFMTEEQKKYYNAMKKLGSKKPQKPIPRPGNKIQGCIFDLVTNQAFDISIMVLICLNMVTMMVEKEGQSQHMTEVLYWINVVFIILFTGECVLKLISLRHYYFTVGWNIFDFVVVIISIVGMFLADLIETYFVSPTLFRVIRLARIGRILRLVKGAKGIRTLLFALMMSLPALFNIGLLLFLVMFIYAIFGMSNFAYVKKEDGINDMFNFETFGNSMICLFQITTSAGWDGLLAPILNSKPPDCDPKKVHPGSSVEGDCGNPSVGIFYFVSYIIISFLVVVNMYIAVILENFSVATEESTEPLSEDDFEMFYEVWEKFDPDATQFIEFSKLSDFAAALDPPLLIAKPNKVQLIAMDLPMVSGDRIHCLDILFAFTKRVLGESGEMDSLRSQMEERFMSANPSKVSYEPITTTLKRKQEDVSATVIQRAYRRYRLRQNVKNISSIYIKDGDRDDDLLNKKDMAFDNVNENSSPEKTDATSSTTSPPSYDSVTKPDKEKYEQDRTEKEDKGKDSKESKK
Patch voltage clamp electrophysiology allows for the direct measurement and quantification of block of voltage-gated sodium channels (NaV's), and allows the determination of the time- and voltage-dependence of block which has been interpreted as differential binding to the resting, open, and inactivated states of the sodium channel (Hille, B., Journal of General Physiology (1977), 69: 497-515).
The following voltage clamp electrophysiology studies are performed on representative compounds using cells heterologously expressing Nav1.7 or Nav1.5 channels. cDNAs for Nav1.7 (NM_002977) and Nav1.5 (AC137587) are stably expressed in Chinese Hamstr Ovary (CHO) cells and CHL (Chinese Hamster Lung) cells respectively. Sodium currents are measured in the whole-cell configuration using Syncropatch 384PE (Nanlon Technologies, Germany). 1NPC®-384 chips with custom medium resistance and single hole mode are used. Internal solution consists of (in mM): […], 10 CsCl, 20 EGTA, and 10 Hepes (pH adjusted to 7.2); and external solution contains (in mM): 60 NMDG, 80 NaCl, 4 KCl, 1 MgCl2, 2 CaCl2, 2 D-Glucose monohydrate, 10 Hepes (pH adjusted to 7.4 with NaOH).
After system flushing, testing compounds are dissolved in external solution containing 0.1% Pluronic F-127. The chip is moved into the measuring head and the instrument primes the chip with external and internal solutions. 10 μl cells are added to the chip from a cell hotel, and a negative pressure of −50 mBar is applied to form a seal. Following treatment with seal enhancer solution and wash-off with external solution, negative pressure of −250 mbar is applied for 1 second to achieve the whole-cell configuration, followed by three washing steps in external solution. 20 μl of compounds is added to 40 μl in each well (1:3 dilution of compounds), and after mixing, 20 μl is removed so the volume is retained at 40 ul. After approximately 13 minutes recordings, 20 μl/well of 2 uM TTX, or 333 uM Tetracaine (for […]) is added to achieve full block.
For voltage protocol, an holding potential of −50 mV is applied during the whole experiment. A depolarizing step is applied to −10 mV for 10 ms, followed by a hyperpolarization step to −150 mV for 20 ms to allow channel recovery from inactivation. A second depolarizing step is applied from −150 mV to −10 mV for 10 ms, where currents are measured to derive blocking effects of compounds. Inhibition is determined based on 7.5 min of compound incubation.
On the technique in general: Patch clamp records ionic current or voltage across a cell membrane.
With `CCN(C)[C@H]1C[C@@H](c2cccc(C(F)(F)F)c2)CC[C@@H]1Oc1ccc(S(=O)(=O)Nc2ccncn2)c(C)n1` [Example 48, 6-(((1S,2S,4S)-2-(Ethyl(methyl)amino)-4-(3-(trifluoromethyl)phenyl)cyclohexyl)oxy)-2-methyl-N-(pyrimidin-4-yl)pyridine-3-sulfonamide], the IC50 was determined as 0.272 nM.
As for `Cc1nc(O[C@H]2CC[C@H](c3cc(Cl)cc(C(F)(F)F)c3)C[C@@H]2N(C)C)ccc1S(=O)(=O)Nc1ccncn1` [Example 49, 6-(((1S,2S,4S)-4-(3-chloro-5-(trifluoromethyl)phenyl)-2-(dimethylamino)cyclohexyl)oxy)-2-methyl-N-(pyrimidin-4-yl)pyridine-3-sulfonamide], the 50% inhibitory concentration (IC50) is 0.188 nM.
With `Cc1nc(O[C@H]2CC[C@H](c3cccc(OC(F)F)c3)C[C@@H]2N(C)C)ccc1S(=O)(=O)Nc1ccncn1` [Example 52, 6-(((1S,2S,4S)-4-(3-(difluoromethoxy)phenyl)-2-(dimethylamino)cyclohexyl)oxy)-2-methyl-N-(pyrimidin-4-yl)pyridine-3-sulfonamide], the IC50 was 1.82 nM.
As for `Cc1nc(O[C@H]2CC[C@H](c3cccc(C(F)(F)F)c3)C[C@@H]2N(C)C)c(F)cc1S(=O)(=O)Nc1ccncn1` [Example 53, 6-(((1S,2S,4S)-2-(Dimethylamino)-4-(3-(trifluoromethyl)phenyl)cyclohexyl)oxy)-5-fluoro-2-methyl-N-(pyrimidin-4-yl)pyridine-3-sulfonamide formate], the figure is 0.989 nM; as for `Cc1ccc(C(F)(F)F)cc1[C@H]1CC[C@H](Oc2ccc(S(=O)(=O)Nc3ccncn3)c(C)n2)[C@@H](N(C)C)C1` [Example 54, 6-(((1S,2S,4S)-2-(dimethyl-amino)-4-(2-methyl-5-(trifluoromethyl)phenyl)-cyclohexyl)oxy)-2-methyl-N-(pyrimidin-4-yl)pyridine-3-sulfonamide], 0.404 nM.
With `Cc1nc(O[C@H]2CC[C@H](c3cccc(C(F)(F)F)c3)C[C@@H]2N2CCOCC2)ccc1S(=O)(=O)Nc1ccncn1` [Example 55, 2-methyl-6-(((1S,2S,4S)-2-morpholino-4-(3-(trifluoro-methyl)phenyl)cyclohexyl)-oxy)-N-(pyrimidin-4-yl)pyridine-3-sulfonamide], the IC50 amounted to 0.527 nM.
As for `Cc1ccc([C@H]2CC[C@H](Oc3ccc(S(=O)(=O)Nc4ccncn4)c(C)n3)[C@@H](N(C)C)C2)cc1C(F)(F)F` [Example 56, 6-(((1S,2S,4S)-2-(dimethyl-amino)-4-(4-methyl-3-(trifluoromethyl)phenyl)-cyclohexyl)oxy)-2-methyl-N-(pyrimidin-4-yl)pyridine-3-sulfonamide formate], the figure is 0.13 nM; as for `Cc1nc(O[C@H]2CC[C@H](c3cccc(Cl)c3)C[C@@H]2N(C)C)ccc1S(=O)(=O)Nc1ccncn1` [Example 57, 6-(((1S,2S,4S)-4-(3-chloro-phenyl)-2-(dimethylamino)-cyclohexyl)oxy)-2-methyl-N-(pyrimidin-4-yl)pyridine-3-sulfonamide], 0.919 nM.
As to `Cc1cc([C@H]2CC[C@H](Oc3ccc(S(=O)(=O)Nc4ccncn4)c(C)n3)[C@@H](N(C)C)C2)cc(C(F)(F)F)c1` [Example 58, 6-(((1S,2S,4S)-2-(dimethyl-amino)-4-(3-methyl-5-(trifluoromethyl)phenyl)-cyclohexyl)oxy)-2-methyl-N-(pyrimidin-4-yl)pyridine-3-sulfonamide], the IC50 was determined as 0.351 nM.
Take `Cc1nc(O[C@H]2CC[C@H](c3cccc(CC(F)(F)F)c3)C[C@@H]2N(C)C)ccc1S(=O)(=O)Nc1ccncn1` [Example 59, 6-(((1S,2S,4S)-2-(dimethyl-amino)-4-(3-(2,2,2-trifluoro-ethyl)phenyl)-cyclohexyl)-oxy)-2-methyl-N-(pyrimidin-4-yl)pyridine-3-sulfonamide]: the IC50 stood at 0.942 nM.
With `Cc1nc(O[C@H]2CC[C@H](c3cccc(C(F)(F)F)c3C)C[C@@H]2N(C)C)ccc1S(=O)(=O)Nc1ccncn1` [Example 60, 6-(((1S,2S,4S)-2-(dimethyl-amino)-4-(2-methyl-3-(trifluoromethyl)phenyl)-cyclohexyl)oxy)-2-methyl-N-(pyrimidin-4-yl)pyridine-3-sulfonamide], the half-inhibitory concentration (IC50) was determined as 0.909 nM.
Turning to `COc1cc(S(=O)(=O)Nc2ccncn2)cnc1O[C@H]1CC[C@H](c2cccc(C(F)(F)F)c2)C[C@@H]1N(C)C` [Example 61, 6-(((1S,2S,4S)-2-(dimethyl-amino)-4-(3-(trifluoromethyl)-phenyl)cyclohexyl)oxy)-5-methoxy-N-(pyrimidin-4-yl)pyridine-3-sulfonamide formate], the IC50 worked out at 10.7 nM.
For the compound `Cc1nc(O[C@H]2CC[C@H](c3ccc(Cl)c(C(F)(F)F)n3)C[C@@H]2N(C)C)ccc1S(=O)(=O)Nc1ccncn1` [Example 62, 6-(((1S,2S,4S)-4-(5-chloro-6-(trifluoromethyl)pyridin-2-yl)-2-(dimethylamino)-cyclohexyl)oxy)-2-methyl-N-(pyrimidin-4-yl)pyridine-3-sulfonamide], the IC50 came out at 1.53 nM.
In the case of `CN(C)[C@H]1C[C@@H](c2cccc(SC(F)(F)F)c2)CC[C@@H]1Oc1ccc(S(=O)(=O)Nc2ccncn2)cn1` [Example 63, 6-(((1S,2S,4S)-2-(dimethy-lamino)-4-(3-((trifluoro-methyl)thio)phenyl)cyclohexyl)oxy)-N-(pyrimidin-4-yl) pyridine-3-sulfonamide], the IC50 came to 1.05 nM.
